{"source": "patent US20090062302A1", "about": "“Jak2 Tyrosine Kinase Inhibition” (priority 2006, published 2009)", "system": "patients with JAK2 positive refractory MPD", "experiment": "Clinical trial in patients with JAK2 positive refractory MPD", "assay_type": "in vivo, human", "conditions": "one trial, eight patients", "data": [{"compound": "Cc1cc(Nc2cc(N3CCN(C)CC3)nc(Sc3ccc(NC(=O)C4CC4)cc3)n2)n[nH]1", "note": "[Compound I, Cyclopropane carboxylic acid {4-[4-(4-methyl-piperazin-1-yl)-6-(5-methyl-2H-pyrazol-3-ylamino)-pyrimidin-2-ylsulphanyl]-phenyl}-amide]", "values": [{"measurement": "patients who achieved an objective response", "result": "six out of eight"}]}]}
